Source: PubChem BioAssay AID256 (DTP/NCI, 2004)
Where “and” joins values, the source holds several entries; their conditions need not be identical. Identical values can stand only once. Toxic doses and inconclusive results are not listed.

Test system: CD2F1 mice, L1210 leukemia ip, survival T/C
Assay: NCI In Vivo Anticancer Drug Screen. Data for tumor model L1210 Leukemia (intraperitoneal) in CD2F1 (CDF1) mice
Conditions: higher = longer survival
Procedure, shortened: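 Activity against a transplanted murine tumor was judged by comparing the compound group with a vehicle group. The outcome in the treated animals was divided by that in the controls.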

[1] = endpoint: mean survival time, dose: 100.0 mg/kg/injection, schedule: Q01DX009 (ip), vehicle: saline
[2] = endpoint: mean survival time, dose: 100.0 mg/kg/injection, schedule: Q01DX009 (ip), vehicle: saline with Tween-80
[3] = endpoint: mean survival time, dose: 200.0 mg/kg/injection, schedule: Q01DX009 (ip), vehicle: saline with Tween-80
[4] = endpoint: mean survival time, dose: 400.0 mg/kg/injection, schedule: Q01DX009 (ip), vehicle: saline with Tween-80
[5] = endpoint: mean survival time, dose: 75.0 mg/kg/injection, schedule: Q01DX001 (ip), vehicle: saline
[6] = endpoint: mean survival time, dose: 150.0 mg/kg/injection, schedule: Q01DX001 (ip), vehicle: saline
[7] = endpoint: mean survival time, dose: 300.0 mg/kg/injection, schedule: Q01DX001 (ip), vehicle: saline
[8] = endpoint: mean survival time, dose: 50.0 mg/kg/injection, schedule: Q01DX009 (ip), vehicle: saline
[9] = endpoint: mean survival time, dose: 100.0 mg/kg/injection, schedule: Q04DX003 (ip), vehicle: saline
[10] = endpoint: mean survival time, dose: 200.0 mg/kg/injection, schedule: Q04DX003 (ip), vehicle: saline
[11] = endpoint: mean survival time, dose: 100.0 mg/kg/injection, schedule: Q04DX003 (ip), vehicle: saline with Tween-80
[12] = endpoint: mean survival time, dose: 200.0 mg/kg/injection, schedule: Q04DX003 (ip), vehicle: saline with Tween-80
[13] = endpoint: mean survival time, dose: 400.0 mg/kg/injection, schedule: Q04DX003 (ip), vehicle: saline with Tween-80

## CSc1nnnn1-c1ccccc1
endpoint: mean survival time, dose: 50.0 mg/kg/injection, schedule: Q01DX009 (ip), vehicle: Klucel (hydroxypropylcellulose) (HPC)
  T/C: 111 % of control
endpoint: mean survival time, dose: 100.0 mg/kg/injection, schedule: Q01DX009 (ip), vehicle: Klucel (hydroxypropylcellulose) (HPC)
  T/C: 104 % of control

## COc1cc2cc(c1Cl)N(C)C(=O)/C=C/C1(C)OC1C(C)C1CC(O)(NC(=O)O1)C(OC)C=C/C=C(\C)C2 (stereo not drawn)
endpoint: mean survival time, dose: 1.3 micrograms/kg/injection, schedule: Q01DX009 (ip), vehicle: saline + alcohol
  T/C: 94 % of control
endpoint: mean survival time, dose: 2.5 micrograms/kg/injection, schedule: Q01DX009 (ip), vehicle: saline + alcohol
  T/C: 94 % of control
endpoint: mean survival time, dose: 5.0 micrograms/kg/injection, schedule: Q01DX009 (ip), vehicle: saline + alcohol
  T/C: 97 % of control
endpoint: mean survival time, dose: 10.0 micrograms/kg/injection, schedule: Q01DX009 (ip), vehicle: saline + alcohol
  T/C: 97 % of control

## NC(=O)c1ccccc1N=NN(CCF)CCF
endpoint: mean survival time, dose: 5.3 mg/kg/injection, schedule: Q04DX003 (ip), vehicle: saline with Tween-80
  T/C: 103 % of control
endpoint: mean survival time, dose: 8.0 mg/kg/injection, schedule: Q04DX003 (ip), vehicle: saline with Tween-80
  T/C: 100 % of control
endpoint: mean survival time, dose: 12.0 mg/kg/injection, schedule: Q04DX003 (ip), vehicle: saline with Tween-80
  T/C: 105 % of control

## O=C(Nc1ccccc1Cl)c1ccccc1CC(O)(c1ccccc1)c1ccccc1
endpoint: mean survival time, dose: 100.0 mg/kg/injection, schedule: Q01DX001 (ip), vehicle: saline sonified
  T/C: 102 % of control
endpoint: mean survival time, dose: 200.0 mg/kg/injection, schedule: Q01DX001 (ip), vehicle: saline sonified
  T/C: 109 % of control
endpoint: mean survival time, dose: 400.0 mg/kg/injection, schedule: Q01DX001 (ip), vehicle: saline sonified
  T/C: 86 % of control

## O=c1[nH]c2ccc(Br)cc2c(=O)o1
[1]
  T/C: 104 % of control
endpoint: mean survival time, dose: 200.0 mg/kg/injection, schedule: Q01DX009 (ip), vehicle: saline
  T/C: 116 % of control
endpoint: mean survival time, dose: 400.0 mg/kg/injection, schedule: Q01DX009 (ip), vehicle: saline
  T/C: 108 % of control

## C=CCOCC(O)C[As](=O)(O)c1cccc(Cl)c1 (stereo not drawn)
endpoint: mean survival time, dose: 6.25 mg/kg/injection, schedule: Q04DX003 (ip), vehicle: saline with Tween-80
  T/C: 103 % of control
endpoint: mean survival time, dose: 12.5 mg/kg/injection, schedule: Q04DX003 (ip), vehicle: saline with Tween-80
  T/C: 119 % of control

## Clc1nc2nc[nH]c2nc1Cl
endpoint: mean survival time, dose: 25.0 mg/kg/injection, schedule: Q01DX009 (ip), vehicle: saline sonified
  T/C: 97 % of control
endpoint: mean survival time, dose: 50.0 mg/kg/injection, schedule: Q01DX009 (ip), vehicle: saline sonified
  T/C: 89 % of control
endpoint: mean survival time, dose: 100.0 mg/kg/injection, schedule: Q01DX009 (ip), vehicle: saline sonified
  T/C: 98 % of control

## CCN(C(=O)c1ccc(C(=O)N(CC)c2ccccc2)cc1)c1ccccc1
[2]
  T/C: 95 % of control
[3]
  T/C: 101 % of control
[4]
  T/C: 90 % of control

## CNC1C(CO)OC(n2cnc3c(N)ncnc32)C1O (stereo not drawn)
[5]
  T/C: 106 % of control
[6]
  T/C: 103 % of control
[7]
  T/C: 109 % of control

## C=C(C)CS(=O)(=O)Cc1ccccc1
endpoint: mean survival time, dose: 50.0 mg/kg/injection, schedule: Q01DX001 (ip), vehicle: Klucel (hydroxypropylcellulose) (HPC)
  T/C: 96 % of control
endpoint: mean survival time, dose: 100.0 mg/kg/injection, schedule: Q01DX001 (ip), vehicle: Klucel (hydroxypropylcellulose) (HPC)
  T/C: 102 % of control
endpoint: mean survival time, dose: 200.0 mg/kg/injection, schedule: Q01DX001 (ip), vehicle: Klucel (hydroxypropylcellulose) (HPC)
  T/C: 102 % of control

## Cc1cc(-c2ccc(N=Nc3c(N)ccc4cc(S(=O)(=O)O)ccc34)c(C)c2)ccc1N=Nc1c(N)ccc2cc(S(=O)(=O)O)ccc12
[8]
  T/C: 101 % of control
[1]
  T/C: 101 % of control

## Cc1ccc(S(=O)(=O)CC(=O)N2CCOCC2)cc1
[9]
  T/C: 102 % of control
[10]
  T/C: 96 % of control
endpoint: mean survival time, dose: 400.0 mg/kg/injection, schedule: Q04DX003 (ip), vehicle: saline
  T/C: 98 % of control

## CO[C@]12[C@@H](COC(N)=O)C3=C(C(=O)C(C)=C(NCCCO)C3=O)N1C[C@@H]1[C@H]2N1C (stereo partly drawn)
endpoint: mean survival time, dose: 1.5 mg/kg/injection, schedule: Q01DX001 (ip), vehicle: water
  T/C: 101 % of control
endpoint: mean survival time, dose: 3.0 mg/kg/injection, schedule: Q01DX001 (ip), vehicle: water
  T/C: 101 % of control
endpoint: mean survival time, dose: 6.0 mg/kg/injection, schedule: Q01DX001 (ip), vehicle: water
  T/C: 102 % of control
endpoint: mean survival time, dose: 12.0 mg/kg/injection, schedule: Q01DX001 (ip), vehicle: water
  T/C: 107 % of control
endpoint: mean survival time, dose: 18.75 mg/kg/injection, schedule: Q01DX001 (ip), vehicle: distilled water + Tween-80
  T/C: 104 % of control
endpoint: mean survival time, dose: 24.0 mg/kg/injection, schedule: Q01DX001 (ip), vehicle: water
  T/C: 101 % of control
endpoint: mean survival time, dose: 36.0 mg/kg/injection, schedule: Q01DX001 (ip), vehicle: water
  T/C: 102 % of control
endpoint: mean survival time, dose: 37.5 mg/kg/injection, schedule: Q01DX001 (ip), vehicle: distilled water + Tween-80
  T/C: 107 % of control
endpoint: mean survival time, dose: 75.0 mg/kg/injection, schedule: Q01DX001 (ip), vehicle: distilled water + Tween-80
  T/C: 107 % of control
endpoint: mean survival time, dose: 150.0 mg/kg/injection, schedule: Q01DX001 (ip), vehicle: distilled water + Tween-80
  T/C: 116 % of control

## COC(c1ccccc1)C(Br)c1ccccc1 (stereo not drawn)
[2]
  T/C: 97 % of control
endpoint: mean survival time, dose: 100.0 mg/kg/injection, schedule: Q04DX003 (ip), vehicle: saline sonified
  T/C: 103 % of control
[3]
  T/C: 97 % of control
endpoint: mean survival time, dose: 200.0 mg/kg/injection, schedule: Q04DX003 (ip), vehicle: saline sonified
  T/C: 100 % of control
[4]
  T/C: 109 % of control
endpoint: mean survival time, dose: 400.0 mg/kg/injection, schedule: Q04DX003 (ip), vehicle: saline sonified
  T/C: 105 % of control

## COc1ccc(CC(N)C(=O)OCc2ccccc2)cc1N(CCCl)CCCl (stereo not drawn)
endpoint: mean survival time, dose: 3.0 mg/kg/injection, schedule: Q01DX009 (ip), vehicle: saline
  T/C: 177 % of control
endpoint: mean survival time, dose: 6.0 mg/kg/injection, schedule: Q01DX009 (ip), vehicle: saline
  T/C: 118 % of control

## O=c1nc(N2CCCC2)ccn1C1OC(CO)C(O)C1O (stereo not drawn)
endpoint: median survival time, dose: 12.5 mg/kg/injection, schedule: Q01DX005 (ip), vehicle: water
  T/C: 100 % of control
endpoint: median survival time, dose: 25.0 mg/kg/injection, schedule: Q01DX005 (ip), vehicle: water
  T/C: 101 % of control
endpoint: median survival time, dose: 50.0 mg/kg/injection, schedule: Q01DX005 (ip), vehicle: water
  T/C: 108 % of control
endpoint: median survival time, dose: 100.0 mg/kg/injection, schedule: Q01DX005 (ip), vehicle: water
  T/C: 101 % of control
endpoint: median survival time, dose: 200.0 mg/kg/injection, schedule: Q01DX005 (ip), vehicle: water
  T/C: 104 % of control

## CCOC(=O)C(C(=O)OC)C(=O)OCC
endpoint: mean survival time, dose: 100.0 mg/kg/injection, schedule: Q01DX001 (ip), vehicle: saline
  T/C: 95 % of control
endpoint: mean survival time, dose: 200.0 mg/kg/injection, schedule: Q01DX001 (ip), vehicle: saline
  T/C: 103 % of control
endpoint: mean survival time, dose: 400.0 mg/kg/injection, schedule: Q01DX001 (ip), vehicle: saline
  T/C: 103 % of control

## CCN(CC)CCN(C)C(O)(C(=O)c1ccccc1)C1CCCCC1 (stereo not drawn)
[5]
  T/C: 105 % of control
[6]
  T/C: 102 % of control
[7]
  T/C: 100 % of control

## COc1cccc(/C=N/OCCNC(=O)c2ccc([N+](=O)[O-])cc2)c1
[11]
  T/C: 97 % of control
[12]
  T/C: 93 % of control
[13]
  T/C: 101 % of control

## F[B-](F)(F)F
endpoint: mean survival time, dose: 12.5 mg/kg/injection, schedule: Q01DX009 (ip), vehicle: gum acacia
  T/C: 94 % of control and 106 % of control
endpoint: mean survival time, dose: 25.0 mg/kg/injection, schedule: Q01DX009 (ip), vehicle: gum acacia
  T/C: 98 % of control
endpoint: mean survival time, dose: 50.0 mg/kg/injection, schedule: Q01DX009 (ip), vehicle: gum acacia
  T/C: 96 % of control and 106 % of control
endpoint: mean survival time, dose: 100.0 mg/kg/injection, schedule: Q01DX009 (ip), vehicle: gum acacia
  T/C: 95 % of control and 101 % of control
endpoint: mean survival time, dose: 200.0 mg/kg/injection, schedule: Q01DX009 (ip), vehicle: gum acacia
  T/C: 109 % of control
endpoint: mean survival time, dose: 400.0 mg/kg/injection, schedule: Q01DX009 (ip), vehicle: gum acacia
  T/C: 98 % of control

## COc1cc2cc[n+]3c(C)c4cc5c(cc4cc3c2cc1OC)OCO5 (tested in a mixture with another compound)
endpoint: mean survival time, dose: 25.0 mg/kg/injection, schedule: Q01DX009 (ip), vehicle: saline with Tween-80
  T/C: 120 % of control
endpoint: mean survival time, dose: 37.5 mg/kg/injection, schedule: Q01DX009 (ip), vehicle: saline with Tween-80
  T/C: 94 % of control
endpoint: mean survival time, dose: 37.5 mg/kg/injection, schedule: Q01DX009 (ip), vehicle: saline
  T/C: 108 % of control
[8]
  T/C: 106 % of control
[9]
  T/C: 121 % of control
[10]
  T/C: 93 % of control

## COc1ccc2c(c1)CCC1=C2CCC2(C)C(=O)NC(=O)N12 (stereo not drawn)
[11]
  T/C: 98 % of control
[12]
  T/C: 96 % of control
[13]
  T/C: 98 % of control

## Nc1ccnnc1
[9]
  T/C: 98 % of control
[10]
  T/C: 101 % of control
